In patent US11567074B2, “Methods for identifying proteins that bind ligands” (University of Pittsburgh—Of the Commonwealth System of …, priority 2016, dated 2023):
Where “and” joins values, the source holds several entries; their conditions need not be identical. Equal values may be shown once. Entries after “also recorded” stand apart in the source; their conditions may differ.

How the values were obtained:
DPP3 [1] = molecular target: T1, DPP3 (Homo sapiens, UniProt Q9NY33); experiment: Western blot thermal shift (CETSA) in a2780cis lysate, DPP3; assay type: binding; design: endogenous in cells; host or cells: a2780cis cells (Sigma Aldrich), cleared freeze-thaw lysate; conditions: 20 μM mdivi-1, a2780cis cytoplasmic lysate, 44-60° C., vs vehicle
T1 sequence (Q9NY33 1-737): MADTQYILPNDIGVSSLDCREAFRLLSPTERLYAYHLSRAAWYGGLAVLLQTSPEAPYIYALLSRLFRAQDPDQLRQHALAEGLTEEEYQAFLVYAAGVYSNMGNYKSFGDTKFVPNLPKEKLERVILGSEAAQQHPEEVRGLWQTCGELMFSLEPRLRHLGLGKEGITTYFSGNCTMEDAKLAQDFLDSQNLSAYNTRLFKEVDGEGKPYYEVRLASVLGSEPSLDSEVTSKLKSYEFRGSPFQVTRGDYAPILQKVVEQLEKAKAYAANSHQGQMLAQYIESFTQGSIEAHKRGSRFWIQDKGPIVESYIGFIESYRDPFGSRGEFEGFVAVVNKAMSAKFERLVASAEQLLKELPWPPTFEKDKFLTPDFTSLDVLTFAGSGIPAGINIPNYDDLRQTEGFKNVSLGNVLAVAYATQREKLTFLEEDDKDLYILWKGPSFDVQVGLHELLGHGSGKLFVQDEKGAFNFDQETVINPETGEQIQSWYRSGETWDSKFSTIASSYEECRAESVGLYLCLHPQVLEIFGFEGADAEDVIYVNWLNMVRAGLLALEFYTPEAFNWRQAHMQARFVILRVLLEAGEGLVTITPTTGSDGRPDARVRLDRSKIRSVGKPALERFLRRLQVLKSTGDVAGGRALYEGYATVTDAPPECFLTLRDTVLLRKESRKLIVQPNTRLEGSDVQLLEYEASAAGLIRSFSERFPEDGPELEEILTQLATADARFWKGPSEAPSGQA
Procedure: (§1) Protein quantification by western blot was employed to confirm the relative abundance of DPP3 remaining in solution following treatment with mdivi-1, heating and centrifugation. Cytoplasmic lysates from a2780cis ovarian cancer cells were treated with 20 μM mdivi-1 of and heated to 44° C., 48° C., 52° C., 56° C., and 60° C., in singlicate; the western blot is shown in FIG. 9D. β-actin was used as a control blot to show an unchanging […] intensity as a function of temperature. […] DPP3 activity was measured using a polypeptide cleavage assay that measures a decrease in fluorescence due to the removal of an n-terminal bound fluorophore. Fluorescence was measured as a function of dose, as shown in FIG. 9E; the control and quench assays for the functional assay are shown in FIG. 9D.
(§2) The lysate stock was placed on ice until thawed.
(§3) Lysates of A2780cis cells were prepared identically as DISRUPT experiments outlined above. The soluble protein was separated on Tris-glycine gels (Invitrogen). The separated proteins were blotted onto a polyvinylidene difluoride (PVDF) membrane and non-specific binding was blocked overnight at 4° C. in phosphate-buffered saline containing 0.1% Tween 20 and 10% nonfat dry milk (blocking buffer). Membranes were incubated with primary antibodies, DPP3 (GeneTex), Drpl (BD Biosciences), and β-actin (Sigma-Aldrich), in blocking buffer overnight at 4° C. […]

β-actin = molecular target: T2, β-actin (Homo sapiens, UniProt P60709); experiment: Western blot thermal shift (CETSA) in a2780cis lysate, β-actin control; assay type: binding; conditions: 20 μM mdivi-1, a2780cis cytoplasmic lysate, control protein
T2 construct: Lysates of A2780cis cells were prepared identically as DISRUPT experiments outlined above; endogenous in cells; host or cells: a2780cis cells, cleared lysate
Procedure: as §1, §2, §3

DRP1 = molecular target: T3, DRP1 (Homo sapiens, UniProt O00429); experiment: Western blot thermal shift (CETSA) in a2780cis lysate, DRP1; assay type: binding; conditions: 20 μM mdivi-1, a2780cis cytoplasmic lysate, 44-60° C., vs vehicle
T3 construct: Lysates of A2780cis cells were prepared identically as DISRUPT experiments outlined above; endogenous in cells; host or cells: a2780cis cells, cleared lysate
T3 sequence (O00429 whole entry): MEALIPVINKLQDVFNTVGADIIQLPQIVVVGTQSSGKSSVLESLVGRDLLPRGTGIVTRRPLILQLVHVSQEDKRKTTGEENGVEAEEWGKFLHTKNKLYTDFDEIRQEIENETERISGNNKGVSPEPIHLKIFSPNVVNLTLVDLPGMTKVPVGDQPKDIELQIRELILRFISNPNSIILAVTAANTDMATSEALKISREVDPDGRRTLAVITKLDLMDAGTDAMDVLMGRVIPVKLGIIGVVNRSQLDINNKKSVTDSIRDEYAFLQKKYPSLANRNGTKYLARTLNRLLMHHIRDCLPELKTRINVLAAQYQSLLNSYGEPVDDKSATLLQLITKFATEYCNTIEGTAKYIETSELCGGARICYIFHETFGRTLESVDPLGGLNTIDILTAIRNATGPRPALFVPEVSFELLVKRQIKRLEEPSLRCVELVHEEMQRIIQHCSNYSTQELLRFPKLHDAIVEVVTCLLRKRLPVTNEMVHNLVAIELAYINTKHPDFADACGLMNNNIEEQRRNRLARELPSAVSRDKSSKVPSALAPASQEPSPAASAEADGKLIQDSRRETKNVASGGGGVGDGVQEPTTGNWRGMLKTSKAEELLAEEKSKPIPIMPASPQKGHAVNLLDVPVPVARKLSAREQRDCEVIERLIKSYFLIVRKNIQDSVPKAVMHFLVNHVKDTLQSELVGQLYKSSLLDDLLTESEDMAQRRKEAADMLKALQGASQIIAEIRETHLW
Procedure: as §1, §2, §3

[2] = test system: tumor cells including cisplatin resistant ovarian cancers cells; conditions: wide range of tumor cells incl. cisplatin resistant ovarian cancer cells; cited from earlier work
DPP3 [3] = molecular target: T1, DPP3; experiment: DPP3 activity assay (fluorogenic polypeptide cleavage); assay type: biochemical; design: purchased BPS Bioscience 80203; conditions: IC50 upon DPP3 activity, purified recombinant DPP3, substrate Arg2-AMC, fluorescence as a function of dose
Procedure: as §1
The inhibition of DPP3 peptidase activity by mdivi-1 was evaluated using a commercially available fluorogenic DPP3 Assay Kit (catalog number 80203, BPS Bioscience, San Diego Calif.) that contains purified recombinant DPP3 protein and DPP3 substrate Arg2-AMC. The fluorescence intensity was measured using a microplate reader, Synergy 2 (BioTek instruments).

[4] = molecular target: T4, dipeptidyl peptidase 3 (DPP3) (Homo sapiens, UniProt Q9NY33); experiment: DISRUPT label-free differential mass spectrometry, a2780cis lysate; assay type: binding; conditions: 20 μM mdivi-1, a2780cis lysate, 56° C. for ten minutes, n=6 per condition
T4 construct: endogenous in cells; host or cells: a2780cis cells (Sigma Aldrich), cleared freeze-thaw lysate
T4 sequence (Q9NY33 1-737): T1 sequence (Q9NY33 1-737)
Procedure: Equal aliquots of a2780cis cells were treated with 20 μM mdivi-1 and DMSO respectively, split into six technical replicates per condition, and heated to 56° C. for ten minutes to stimulate differential agglutination of drug-bound and unbound proteins. […] Data-dependent MS/MS data was analyzed and results in the identification of 35,369 features linked to 5488 unique peptides sequences that were associated with 947 proteins. Features […] having non-zero intensity values in at least four of six samples per condition were selected, and a Student's t-test was applied to compute a p value for each feature, and a volcano plot was created to show the distribution of features as a function of fold change and significance, as shown in the volcano plot in FIG. 7A. Two of the significant features were identified as peptide […] (SEQ ID NO: 2) deriving from dipeptidyl peptidase 3, DPP3, using MS/MS spectra acquired during the initial dMS experiment. The 6 remaining highly significant features were identified as peptides […] (SEQ ID NO: 6), […] (SEQ ID NO: 4), and […] (SEQ ID NO: 1) that are specific to the protein sequence for DPP3, using MS/MS spectra acquired in subsequent analyses.
as §2
Samples were denatured and digested utilizing the FASP method described by Wisniewski et al. (2009) and Manza et al. (2005). […]

[5] = molecular target: T5, Huntingtin-interacting protein K, HYPK (Homo sapiens, UniProt Q9NX55); experiment: DISRUPT label-free differential mass spectrometry, K562 lysate, HYPK; assay type: binding; conditions: 2 μM staurosporine, 56° C. for ten minutes, n=10 per condition
T5 construct: endogenous in cells; host or cells: K562 cells (ATCC), cleared lysate in kinase buffer
T5 sequence (Q9NX55 1-121): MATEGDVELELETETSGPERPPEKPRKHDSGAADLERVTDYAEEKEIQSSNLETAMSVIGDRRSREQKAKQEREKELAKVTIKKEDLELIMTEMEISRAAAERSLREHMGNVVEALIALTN
Procedure: Samples were heated to 56° C. for ten minutes to stimulate protein agglutination (protein clumping) and agglutinated proteins were removed from solution by centrifugation at 20,000 g.
To measure the relative abundance of proteins in solution, lysates were subjected to tryptic digestion, desalting and quantitative proteomic analysis. Peptide samples were separated by reversed phase C18 nanoflow liquid chromatography (nLC), ionized by electrospray ionization, and analyzed with a hybrid ion trap/high-resolution Fourier transform mass spectrometer. […] To enhance the quantification of the vast number of molecular features present in high-resolution data, the acquisition of full-scan MS spectra were prioritized over the collection of MS/MS spectra that are used for peptide identification, resulting in approximately 10 quantitative measurements per chromatographic peak.
Samples were analyzed in a balanced run order to compensate for drifts in mass spectrometry response that occurs as a function of time. Each sample was analyzed once and the resulting data file was uploaded to a cloud-based data analysis platform, CHORUS (www.chorusproject.org), that was developed to support the efficient analysis of high-resolution mass spectrometry data. Label-free differential mass spectrometry (dMS) was used to quantify hundreds of thousands of features detected by nLC-MS analysis. […]

Row | SMILES | thermal shift of DPP3 (protein remaining in solution, western blot) (DPP3 [1]) | thermal shift of β-actin (western blot) (β-actin) | thermal shift of DRP1 (western blot) (DRP1) | killing of tumor cells [2] | IC50 (DPP3 [3]) | DISRUPT ranking / significant features of DPP3 [4] | peptides identified among the 15 highly significant features (p<0.0001), HYPK [5]
1 | COc1cc(-n2c(S)nc3ccccc3c2=O)c(Cl)cc1Cl [mdivi-1] | remained in solution at 52 °C and 56 °C at higher levels compared to vehicle treated controls; also recorded: a strong shift was seen for DPP3 | no shifts were observed | no evidence of a thermal shift; also recorded: no shifts were observed | robust killing | ~70 nM and 70 nM | eight DPP3 peptides from 18 features were significant; also recorded: top putative target | 
2 | CN[C@@H]1C[C@H]2O[C@@](C)([C@@H]1OC)n1c3ccccc3c3c4c(c5c6ccccc6n2c5c31)C(=O)NC4 [staurosporine] |  |  |  |  |  |  | one peptide
